From patent US20130261147A1, “COMPOSITION FOR PREVENTING OR TREATING DEMENTIA” (priority 2010, published 2013)
Entries after “also recorded” stand apart in the source; their conditions may differ.

Assays:
[1] = tested on: Human Beta Amyloid [1-40] (Aβ40) production in HeLa cell line transfected with Human APP; assay: Inhibition of Aβ40 production, HeLa cell line transfected with Human APP, colorimetric ELISA of culture medium; format: cell-based; details: for inhibitory effect on Aβ40 production, dependence on concentration (in words): over the concentrations tested
Description: (§1) To investigate in vitro inhibitory activity of Lycoris aurea extracts against beta-amyloid production, a HeLa cell line transfected with Human APP was used. This cell line was provided from Professor Tae-Wan Kim (Department of Pathology, Columbia University Medical Center, New York, N.Y. 10032, USA). For the quantity analysis of major beta-amyloids, Aβ40, and Aβ42, which are resulted from the activity of gamma-secretase secreted from cells, Human Beta Amyloid (Aβ40), and Human Beta Amyloid (Aβ42) Colorimetric ELISA Kit (#KHB3482 and #KHB3442; BioSource International, Inc., USA) were each used.
(§2) The alcohol extracts of Lycoris aurea (CN1-M, see Example 1) with certain concentrations set forth in Table 1 below were added to the cell culture medium (DMEM culture medium #11995; GIBCO) cultured with the transfected HeLa cells, which were then cultured at 37° C. for 8 hours. A transfected HeLa cell culture medium with no treatment, to which no Lycoris aurea alcohol extracts were added, was used as a negative control.

[2] = tested on: Human Beta Amyloid [1-42] (Aβ42) production in HeLa cell line transfected with Human APP; assay: Inhibition of Aβ42 production, HeLa cell line transfected with Human APP, colorimetric ELISA of culture medium; format: cell-based; details: for inhibitory effect on Aβ42 production, dependence on concentration (in words): over the concentrations tested
Description: as §1, §2

sAPPα = assay: Western blot of sAPPα (product of alpha-secretase activity), band density; format: cell-based; details: 0.1 μg/ml; for effect on secretion / production change of sAPPα (in words): Western blot; for Reduction Rate of sAPPα (%) Against Negative Control: band density of Western blot
Protocol: (§3) Effects of the compounds on the production of a product resulted from the activity of alpha-secretase, sAPPα and a product resulted from the activity of beta-secretase, sAPPβ, were investigated through the Western blot methods of sAPPα and sAPPβ, and the results are shown in FIG. 6. […] The band densities of sAPPα and sAPPβ were measured from the Western blot results of FIG. 6, and the results are shown Table 6 and FIG. 7.

cells = assay: MTT Cell Proliferation assay, cell death activity; format: cell-based; details: 8 hours; for cytotoxicity (in words): up to 10 μg/ml
Protocol: In order to investigate the cell death activity caused by the compounds, lycoricidine and lycoricidinol, MTT Cell Proliferation assay method was used (ATCC catalog #30-1010K, Manassas, USA). After cells were treated with each compound having various concentrations for 8 hours, viable cells were measured quantitatively, and the results are shown in Table 7 and FIG. 8.

alpha-secretase = assay: Alpha-secretase activity assay kit with total membrane proteins from HeLa cells; format: biochemical; details: for Activity Change Rate of Alpha-Secretase (%) against Negative Control: 100%: No Change; for change of the activity of the alpha-secretase (in words): 0.01 and 0.1 μg/ml
Description: In order to investigate which secretase is responsible for the inhibitory effects of the compounds on Aβ production, an activity assay kit (#CBA042; Calbiochem, USA) of the alpha-secretase was used. For the alpha-secretase, the total membrane proteins obtained from the HeLa cells (see Test Example 1) were used.

sAPPβ = assay: Western blot of sAPPβ (product of beta-secretase activity), band density; format: cell-based; details: 0.1 μg/ml; for effect on secretion / production change of sAPPβ (in words): Western blot; for Reduction Rate of sAPPβ (%) Against Negative Control: band density of Western blot
Protocol: as §3

Structure (SMILES) | inhibitory effect on Aβ40 production, dependence on concentration (in words) [1] | inhibitory effect on Aβ42 production, dependence on concentration (in words) [2] | effect on secretion / production change of sAPPα (in words) (sAPPα) | Reduction Rate of sAPPα (%) Against Negative Control (sAPPα) | Cell Death Rate (%) against Negative Control (cells; 0.01 μg/ml) | Cell Death Rate (%) against Negative Control (cells; 0.1 μg/ml) | Cell Death Rate (%) against Negative Control (cells; 1 μg/ml) | Cell Death Rate (%) against Negative Control (cells; 10 μg/ml) | cytotoxicity (in words) (cells) | Activity Change Rate of Alpha-Secretase (%) against Negative Control (alpha-secretase; 0.01 μg/ml) | Activity Change Rate of Alpha-Secretase (%) against Negative Control (alpha-secretase; 0.1 μg/ml) | change of the activity of the alpha-secretase (in words) (alpha-secretase) | effect on secretion / production change of sAPPβ (in words) (sAPPβ) | Reduction Rate of sAPPβ (%) Against Negative Control (sAPPβ) | other results
O=C1NC2C(=CC(O)C(O)C2O)c2cc3c(cc21)OCO3 (centres unmarked) [Lycoricidine, lycoricidine] | concentration-dependent | concentration-dependent | did not affect the secretion; also recorded: not significant | 12% | 4.9% | 11.3% | 19% | 21.1% | not cytotoxic | 106% | 110% | did not change the activity | did not affect the secretion; also recorded: not significant | 17% | inhibition at 0.01 µg/mL ([1]; Homo sapiens, HeLa, 0.01 μg/ml, read-out: Aβ40 Production Inhibitory Rate (%) against Negative Control): 3.3%; inhibition at 0.1 µg/mL ([1]; Homo sapiens, HeLa, 0.1 μg/ml, read-out: Aβ40 Production Inhibitory Rate (%) against Negative Control): 67%; inhibition at 1 µg/mL ([1]; Homo sapiens, HeLa, 1 μg/ml, read-out: Aβ40 Production Inhibitory Rate (%) against Negative Control): 92.8%; inhibition at 10 µg/mL ([1]; Homo sapiens, HeLa, 10 μg/ml, read-out: Aβ40 Production Inhibitory Rate (%) against Negative Control): 97.2%; inhibition at 0.01 µg/mL ([2]; Homo sapiens, HeLa, 0.01 μg/ml, read-out: Aβ42 Production Inhibitory Rate (%) against Negative Control): 16%; inhibition at 0.1 µg/mL ([2]; Homo sapiens, HeLa, 0.1 μg/ml, read-out: Aβ42 Production Inhibitory Rate (%) against Negative Control): 81.3%; inhibition at 1 µg/mL ([2]; Homo sapiens, HeLa, 1 μg/ml, read-out: Aβ42 Production Inhibitory Rate (%) against Negative Control): 97.5%; inhibition at 10 µg/mL ([2]; Homo sapiens, HeLa, 10 μg/ml, read-out: Aβ42 Production Inhibitory Rate (%) against Negative Control): 100%
O=C1NC2C(=CC(O)C(O)C2O)c2cc3c(c(O)c21)OCO3 (centres unmarked) [Lycoricidinol, lycoricidinol] | concentration-dependent | concentration-dependent | did not affect the secretion; also recorded: not significant | 1.0% | 10.3% | 11.6% | 16.5% | 19.3% | not cytotoxic | 94% | 100% | did not change the activity | did not affect the secretion; also recorded: not significant | 7.5% | Aβ40 Production Inhibitory Rate (%) against Negative Control ([1]; 0.01 μg/ml): 25.0%; Aβ40 Production Inhibitory Rate (%) against Negative Control ([1]; 0.1 μg/ml): 90.4%; Aβ40 Production Inhibitory Rate (%) against Negative Control ([1]; 1 μg/ml): 97.8%; Aβ40 Production Inhibitory Rate (%) against Negative Control ([1]; 10 μg/ml): 98.4%; Aβ42 Production Inhibitory Rate (%) against Negative Control ([2]; 0.01 μg/ml): 44.0%; Aβ42 Production Inhibitory Rate (%) against Negative Control ([2]; 0.1 μg/ml): 97.0%; Aβ42 Production Inhibitory Rate (%) against Negative Control ([2]; 1 μg/ml): 100%; Aβ42 Production Inhibitory Rate (%) against Negative Control ([2]; 10 μg/ml): 100%
